Test results published in PubChem BioAssay AID2060896 (Molecular Pharmacology Branch, DTP, NCI, 2025).

System: 941728-121-R-J1-PDC complex spheroid viability
Assay: Anticancer human tumor 941728-121-R-J1-PDC patient-derived lung adenocarcinoma cell line growth inhibition [RAS]
Conditions: for IC50: curve of first compound; for viability, T/C: stronger effect = lower value
Text: RAS pathway inhibitors in Combinations in Complex Spheroids
A high-throughput screen of multi-cell type tumor spheroids was designed to identify active combinations of RAS pathway inhibitors and targeted small molecules. Complex spheroids include a stromal component modeled by human endothelial cells (HUVEC) and fibroblasts modeled by human mesenchymal stem cells (MSCs). The concentration ranges selected for each drug and investigational agent were based upon clinically achievable concentrations if the clinical Cmax of the agent was known.
Compounds. The drugs and investigational agents: abemaciclib (NSC768073), cobimetinib (NSC768068), divarasib (GDC6063, NSC841802), docetaxel (NSC628503), GDC-1971 (RLY-1971, NSC841576), gemcitabine (NSC613327), inavolisib (NSC800729), ipatasertib (NSC767898), KB-0742 (NSC834161), MRTX-1133 (NSC836407), osimertinib (NSC779217), RMC-4630 (NSC839698), RMC-6236 (NSC851965), RMC-6291 (NSC852671), Ro-3306 (NSC812927), sapanisertib (NSC764658), SN-38 (NSC673596), staurosporine (NSC755774), SY5609 (NSC837396), and tovorafenib (DAY101, NSC766906), were obtained from the National Cancer Institute (NCI) Developmental Therapeutics Program Chemical Repository. The FDA-approved anticancer drug set is available from the NCI Developmental Therapeutics Program. […] The stock solutions were prepared in dimethyl sulfoxide (DMSO, Sigma-Aldrich, St. Louis, MO, cat. D2650) at 800-fold the tested concentration and stored at -70 degrees C prior to their use. All drugs and investigational agents were tested over a range starting from a high concentration at or near the clinical Cmax and decreasing in half-log increments. If the clinical Cmax for an agent had not been determined, the highest concentration tested was 10 microM.
Cell Culture. All cells were maintained in an incubator at 37 degrees C and 5% CO2 with 95% humidity. The PDC lines were cultured according to standard operating procedures established by the NCI PDMR. All PDCs were thawed and cultured in Matrigel-coated flasks prepared with a working solution of 1X Ham's F-12 nutrient mix, without supplementation (Invitrogen, Waltham, MA, cat. 11765054), 100 U/mL penicillin-streptomycin (Invitrogen, cat. 15140122), and 2.5% Matrigel (Corning Inc., Corning, NY, cat. 354248) for the first three passages. The 362531-283-R-J2-PDC and 782815-120-R-J1-PDC lines were cultured in 6C/Colon 1B media, which includes advanced DMEM/F-12 (Thermo Fisher Scientific, cat. 12634028), 10 mM HEPES (Thermo Fisher Scientific, cat. 15630080), 1X GlutaMAX supplement (Thermo Fisher Scientific, cat. 35050061), 0.1 mg/mL primocin (InvivoGen, San Diego, CA, cat. ant-pm-2), 10% defined fetal bovine serum, heat inactivated (HyClone Laboratories Inc., Logan, UT, cat. SH30070.03HI), 50% L-WRN conditioned media (ATCC, cat. CRL-3276), 1.25 mM N-Acetyl-L-cysteine (Sigma-Aldrich, cat. A9165), 10 mM nicotinamide (Sigma-Aldrich, cat. N0636), 1X B-27 supplement (Thermo Fisher Scientific, cat. 17504044), 1X N-2 supplement (Thermo Fisher Scientific, cat. 17502048), 50 ng/mL human EGF (Thermo Fisher Scientific, cat. PHG0311), and 10 microM Y-27632 dihydrochloride (Tocris Bioscience, cat. 1254). The K12877-001-R-J1-PDC line was cultured in 6I media, which includes all 6C/Colon 1B media plus 10 ng/mL human FGF-10 (PeproTech, cat. 100-26), 1 ng/mL human FGF-2 (PeproTech, cat. 100-18B), 1 µM prostaglandin E2 (Tocris Bioscience, cat. 2296), […] hydrocortisone (Sigma-Aldrich, cat. H4001), and […] bovine insulin (Sigma-Aldrich, cat. I6634). The K86415-001-R-J1-PDC line was cultured in 6D media, which includes all 6C/Colon 1B media components minus the L-WRN conditioned media. The 485176-168-R4-J1-PDC was cultured in PANC media, which includes all 6C/Colon 1B media plus 100 ng/mL human FGF-10 (PeproTech, cat. 100-26), 500 nM SB-431542 (Selleckchem, cat. S1067), and 10 nM gastrin (Tocris Bioscience, cat. 3006). […]

[1] = second compound 0.0316 µM, first compound 0.00316 µM
[2] = second compound 0.0316 µM, first compound 0.01 µM
[3] = second compound 0.0316 µM, first compound 0.0316 µM
[4] = second compound 0.0316 µM, first compound 0.1 µM
[5] = second compound 0.0316 µM, first compound 0.316 µM
[6] = second compound 0.0316 µM, first compound 1 µM
[7] = second compound 0.1 µM, first compound 0.00316 µM
[8] = second compound 0.1 µM, first compound 0.01 µM
[9] = second compound 0.1 µM, first compound 0.0316 µM
[10] = second compound 0.1 µM, first compound 0.1 µM
[11] = second compound 0.1 µM, first compound 0.316 µM
[12] = second compound 0.1 µM, first compound 1 µM
[13] = second compound 0.316 µM, first compound 0.00316 µM
[14] = second compound 0.316 µM, first compound 0.01 µM
[15] = second compound 0.316 µM, first compound 0.0316 µM
[16] = second compound 0.316 µM, first compound 0.1 µM
[17] = second compound 0.316 µM, first compound 0.316 µM
[18] = second compound 0.316 µM, first compound 1 µM
[19] = second compound 1 µM, first compound 0.00316 µM
[20] = second compound 1 µM, first compound 0.01 µM
[21] = second compound 1 µM, first compound 0.0316 µM
[22] = second compound 1 µM, first compound 0.1 µM
[23] = second compound 1 µM, first compound 0.316 µM
[24] = second compound 1 µM, first compound 1 µM
[25] = second compound 3.16 µM, first compound 0.00316 µM
[26] = second compound 3.16 µM, first compound 0.01 µM
[27] = second compound 3.16 µM, first compound 0.0316 µM
[28] = second compound 3.16 µM, first compound 0.1 µM
[29] = second compound 3.16 µM, first compound 0.316 µM
[30] = second compound 3.16 µM, first compound 1 µM
[31] = second compound 10 µM, first compound 0.00316 µM
[32] = second compound 10 µM, first compound 0.01 µM
[33] = second compound 10 µM, first compound 0.0316 µM
[34] = second compound 10 µM, first compound 0.1 µM
[35] = second compound 10 µM, first compound 0.316 µM
[36] = second compound 10 µM, first compound 1 µM
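Also: spheroids exposed to compounds for 7 days before readout.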
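For viability, T/C in this document: 100% = DMSO vehicle control viability.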

## C=CC(=O)Nc1cc(Nc2nccc(-c3cn(C)c4ccccc34)n2)c(OC)cc1N(C)CCN(C)C + C#Cc1c(F)ccc2cc(O)cc(-c3ncc4c(N5CC6CCC(C5)N6)nc(OCC56CCCN5CC(F)C6)nc4c3F)c12
Second compound 0.0316 µM
  IC50: 142 nM
Second compound 0.1 µM
  IC50: 54.7 nM
Second compound 0.316 µM
  IC50: 16.8 nM
Second compound 1 µM
  IC50: < 3.16 nM
Second compound 3.16 µM
  IC50: < 3.16 nM
Second compound 10 µM
  IC50: < 3.16 nM
[1]
  viability, T/C: 79.4%
[2]
  viability, T/C: 70.4%
[3]
  viability, T/C: 61.4%
[4]
  viability, T/C: 51%
[5]
  viability, T/C: 44.9%
[6]
  viability, T/C: 39.5%
[7]
  viability, T/C: 78.5%
[8]
  viability, T/C: 65.6%
[9]
  viability, T/C: 58%
[10]
  viability, T/C: 40.9%
[11]
  viability, T/C: 42.1%
[12]
  viability, T/C: 36.4%
[13]
  viability, T/C: 56.1%
[14]
  viability, T/C: 57.7%
[15]
  viability, T/C: 41.7%
[16]
  viability, T/C: 36.6%
[17]
  viability, T/C: 32.8%
[18]
  viability, T/C: 33.8%
[19]
  viability, T/C: 35.2%
[20]
  viability, T/C: 39.1%
[21]
  viability, T/C: 31.6%
[22]
  viability, T/C: 29.2%
[23]
  viability, T/C: 29.5%
[24]
  viability, T/C: 30%
[25]
  viability, T/C: 30.3%
[26]
  viability, T/C: 26.5%
[27]
  viability, T/C: 26.5%
[28]
  viability, T/C: 26.1%
[29]
  viability, T/C: 26%
[30]
  viability, T/C: 24.6%
[31]
  viability, T/C: 22.1%
[32]
  viability, T/C: 22.3%
[33]
  viability, T/C: 19.7%
[34]
  viability, T/C: 19.3%
[35]
  viability, T/C: 20%
[36]
  viability, T/C: 17.5%

## CC(Nc1ccc2c(c1)OCCn1cc(N3C(=O)OCC3C(F)F)nc1-2)C(N)=O (stereo unspecified) + C#Cc1c(F)ccc2cc(O)cc(-c3ncc4c(N5CC6CCC(C5)N6)nc(OCC56CCCN5CC(F)C6)nc4c3F)c12
Second compound 0.0316 µM
  IC50: 75.7 nM
Second compound 0.1 µM
  IC50: 49.4 nM
Second compound 0.316 µM
  IC50: < 31.6 nM
Second compound 1 µM
  IC50: < 31.6 nM
Second compound 3.16 µM
  IC50: < 31.6 nM
Second compound 10 µM
  IC50: < 31.6 nM
[3]
  viability, T/C: 64.5%
[4]
  viability, T/C: 44.4%
[5]
  viability, T/C: 37%
[6]
  viability, T/C: 35.9%
Second compound 0.0316 µM, first compound 3.16 µM
  viability, T/C: 29%
Second compound 0.0316 µM, first compound 10 µM
  viability, T/C: 29.6%
[9]
  viability, T/C: 56.9%
[10]
  viability, T/C: 39.5%
[11]
  viability, T/C: 33.2%
[12]
  viability, T/C: 28.1%
Second compound 0.1 µM, first compound 3.16 µM
  viability, T/C: 31.3%
Second compound 0.1 µM, first compound 10 µM
  viability, T/C: 32.5%
[15]
  viability, T/C: 40.3%
[16]
  viability, T/C: 38.1%
[17]
  viability, T/C: 33.4%
[18]
  viability, T/C: 29.9%
Second compound 0.316 µM, first compound 3.16 µM
  viability, T/C: 30.4%
Second compound 0.316 µM, first compound 10 µM
  viability, T/C: 23.1%
[21]
  viability, T/C: 33.8%
[22]
  viability, T/C: 29.8%
[23]
  viability, T/C: 27.6%
[24]
  viability, T/C: 27.8%
Second compound 1 µM, first compound 3.16 µM
  viability, T/C: 27.4%
Second compound 1 µM, first compound 10 µM
  viability, T/C: 25.9%
[27]
  viability, T/C: 28.3%
[28]
  viability, T/C: 28.4%
[29]
  viability, T/C: 28%
[30]
  viability, T/C: 23.4%
Second compound 3.16 µM, first compound 3.16 µM
  viability, T/C: 26.2%
Second compound 3.16 µM, first compound 10 µM
  viability, T/C: 23.2%
[33]
  viability, T/C: 22.8%
[34]
  viability, T/C: 21.2%
[35]
  viability, T/C: 19.5%
[36]
  viability, T/C: 18.5%
Second compound 10 µM, first compound 3.16 µM
  viability, T/C: 17.4%
Second compound 10 µM, first compound 10 µM
  viability, T/C: 15.4%

## O=C(c1ccc(F)c(F)c1Nc1ccc(I)cc1F)N1CC(O)([C@@H]2CCCCN2)C1 + C#Cc1c(F)ccc2cc(O)cc(-c3ncc4c(N5CC6CCC(C5)N6)nc(OCC56CCCN5CC(F)C6)nc4c3F)c12
Second compound 0.0316 µM
  IC50: 14.5 nM
Second compound 0.1 µM
  IC50: 9.8 nM
Second compound 0.316 µM
  IC50: < 3.16 nM
Second compound 1 µM
  IC50: < 3.16 nM
Second compound 3.16 µM
  IC50: < 3.16 nM
Second compound 10 µM
  IC50: < 3.16 nM
[1]
  viability, T/C: 71%
[2]
  viability, T/C: 55.9%
[3]
  viability, T/C: 37.7%
[4]
  viability, T/C: 31.2%
[5]
  viability, T/C: 29.6%
[6]
  viability, T/C: 24.4%
[7]
  viability, T/C: 70.6%
[8]
  viability, T/C: 49.2%
[9]
  viability, T/C: 37%
[10]
  viability, T/C: 31%
[11]
  viability, T/C: 28.3%
[12]
  viability, T/C: 23.9%
[13]
  viability, T/C: 47.9%
[14]
  viability, T/C: 44.9%
[15]
  viability, T/C: 31.9%
[16]
  viability, T/C: 29%
[17]
  viability, T/C: 30.5%
[18]
  viability, T/C: 21.6%
[19]
  viability, T/C: 33.8%
[20]
  viability, T/C: 29.7%
[21]
  viability, T/C: 31.9%
[22]
  viability, T/C: 29.1%
[23]
  viability, T/C: 29.2%
[24]
  viability, T/C: 20.8%
[25]
  viability, T/C: 24.5%
[26]
  viability, T/C: 28.5%
[27]
  viability, T/C: 27.4%
[28]
  viability, T/C: 25.7%
[29]
  viability, T/C: 21.9%
[30]
  viability, T/C: 19.1%
[31]
  viability, T/C: 22%
[32]
  viability, T/C: 18.8%
[33]
  viability, T/C: 17.7%
[34]
  viability, T/C: 18.1%
[35]
  viability, T/C: 15.5%
[36]
  viability, T/C: 12.2%
